We go through 10 compounds from ChEMBL document CHEMBL1201862, “PubChem BioAssay data set” (2004).

Molecules are shown by their SMILES.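 Cells were grown in 96-well plates and exposed to each compound for 48 hours at five concentrations; endpoints were interpolated linearly between bracketing concentrations, or set to the highest concentration if not reached. Here, GI50 denotes the concentration required for 50% inhibition of growth.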 Active and inactive are the calls of the source. No stated cut-off is given here; in the data, active = GI50 up to about 1.1 µM and inactive = higher.

Among the test systems are NCI-H226; 786-0; TK-10; EKVX; HOP-62; A549; K562; OVCAR-4; HL-60; CCRF-CEM; SK-MEL-28; SF-268; SW-620; M14; OVCAR-5; RXF 393; DU-145; NCI-H460; SK-MEL-2; OVCAR-3.
Assay in all cases: DTP human tumour cell line panel, 48 h

As a reminder, the GI50 is the concentration giving 50% growth inhibition.

As to `COc1ccc(/C=C/C(=O)c2cc(C(C)(C)C)c(O)c(C(C)(C)C)c2)cc1OC`, the GI50 is 10.7 µM (inactive) in the experiment with NCI-H226; 8.67 µM (inactive) in the experiment with 786-0; 6.82 µM (inactive) in the experiment on TK-10; 11.2 µM (inactive) in the experiment with EKVX; 23 µM (inactive) in the experiment with HOP-62; 8.59 µM (inactive) in the experiment with A549. Also, the GI50 is 3.12 µM (inactive) in the experiment with K562; 5.9 µM (inactive) in the experiment on OVCAR-4; 2.84 µM (inactive) with HL-60; 2.83 µM (inactive) with CCRF-CEM; 37.5 µM (inactive) with SK-MEL-28; 17.9 µM (inactive) in the experiment with SF-268. Also, the GI50 in the experiment with SW-620 was 4.32 µM (inactive); in the experiment on M14, 25.3 µM (inactive); with OVCAR-5 it was 25.2 µM (inactive); with RXF 393 it was 2.86 µM (inactive); with DU-145 it was 10 µM (inactive); in the experiment with NCI-H460, 5.52 µM (inactive). The GI50 was 3.48 µM (inactive) in the experiment on SK-MEL-2 and 4.97 µM (inactive) in the experiment with OVCAR-3.
Consider `C=C(Cl)C(C)(Cl)CCC(Cl)C(C)(C)Cl` (stereo not given), for which the GI50 in the experiment with NCI-H226 was 42.3 µM (inactive); in the experiment with 786-0, > 100 µM (inactive); with TK-10, > 100 µM (inactive); with EKVX it was > 100 µM (inactive); with HOP-62, > 100 µM (inactive); in the experiment with A549, 44.8 µM (inactive). The GI50 in the experiment with K562 was 33.7 µM (inactive); in the experiment on OVCAR-4, 53.7 µM (inactive); in the experiment with HL-60, 36.2 µM (inactive); in the experiment on CCRF-CEM, 30.3 µM (inactive); in the experiment with SK-MEL-28 it was > 100 µM (inactive); with SF-268, 89.9 µM (inactive). The GI50 with SW-620 was 51.6 µM (inactive); in the experiment with M14, 70.8 µM (inactive); with OVCAR-5, > 100 µM (inactive); in the experiment with RXF 393, 35.1 µM (inactive); in the experiment with DU-145 it was > 100 µM (inactive); with NCI-H460 it was 78.9 µM (inactive). In addition, the GI50 with SK-MEL-2 is 27.2 µM (inactive); in the experiment on OVCAR-3, 46 µM (inactive).
Consider `CCn1ncc(Oc2c(Cl)cc(N)cc2Cl)c(Cl)c1=O`, for which the GI50 was 40.3 µM (inactive) in the experiment on NCI-H226; 41.5 µM (inactive) with 786-0; 47.2 µM (inactive) in the experiment with TK-10; 34.9 µM (inactive) in the experiment on EKVX; 44.9 µM (inactive) in the experiment with HOP-62; 30.5 µM (inactive) in the experiment on A549. The GI50 is 35.1 µM (inactive) with K562; 54 µM (inactive) with OVCAR-4; 34.2 µM (inactive) with HL-60; 83 µM (inactive) in the experiment on CCRF-CEM; 51.3 µM (inactive) with SK-MEL-28; 31 µM (inactive) with SF-268. Moreover, the GI50 with SW-620 is 37.2 µM (inactive); in the experiment on M14, 30.1 µM (inactive); with OVCAR-5 it was 43.9 µM (inactive); in the experiment with RXF 393, 29 µM (inactive); in the experiment with DU-145, 60.8 µM (inactive); in the experiment with NCI-H460, 32.2 µM (inactive). The results for the GI50 with SK-MEL-2 and in the experiment with OVCAR-3 were 34.6 µM (inactive) and 17.2 µM (inactive), respectively.
In the case of `OC1(c2ccccc2)CC2CCC(C1)N2CCCC(O)(c1ccccc1)c1ccccc1` (stereo not given), the GI50 with NCI-H226 is 12.4 µM (inactive); in the experiment on 786-0 it was 12.5 µM (inactive); in the experiment with TK-10 it was 12.7 µM (inactive); in the experiment with EKVX it was 16.5 µM (inactive); with HOP-62 it was 15.5 µM (inactive); in the experiment on A549, 17.1 µM (inactive). Moreover, the GI50 was 4.99 µM (inactive) with K562; 33.8 µM (inactive) with OVCAR-4; 22.9 µM (inactive) in the experiment with HL-60; 4.33 µM (inactive) in the experiment on CCRF-CEM; 17.7 µM (inactive) with SK-MEL-28; 13.4 µM (inactive) with SF-268. For the same compound, the GI50 in the experiment on SW-620 was 7.33 µM (inactive); in the experiment on M14, 16.4 µM (inactive); in the experiment with OVCAR-5 it was 25.8 µM (inactive); in the experiment with RXF 393, 11.9 µM (inactive); in the experiment with DU-145, 21.4 µM (inactive); with NCI-H460 it was 2.2 µM (inactive). Besides, the GI50 with SK-MEL-2 was 20.3 µM (inactive); in the experiment on OVCAR-3 it was 16.4 µM (inactive).
On to `CNNC1=NS(=O)(=O)c2cc(C#N)c(Cl)cc2S1`, for which the GI50 with NCI-H226, with 786-0, in the experiment on TK-10, with EKVX, in the experiment on HOP-62 and in the experiment on A549 was > 10 µM (inactive) each time. Also, the GI50 in the experiment on K562, in the experiment on OVCAR-4, with HL-60, in the experiment with CCRF-CEM, in the experiment with SK-MEL-28 and in the experiment on SF-268 was > 10 µM (inactive) in each case. Also, the GI50 in the experiment on SW-620, in the experiment on M14, in the experiment with OVCAR-5, with RXF 393, in the experiment with DU-145 and in the experiment with NCI-H460 was > 10 µM (inactive) in each case. For the same compound, the GI50 in the experiment on SK-MEL-2 and in the experiment with OVCAR-3 was > 10 µM (inactive) throughout.
With `O=C1CCSCCC(=O)Nc2ccccc2N1`, the GI50 in the experiment with NCI-H226, in the experiment with 786-0, in the experiment on TK-10, with EKVX, with HOP-62 and in the experiment with A549 was > 100 µM (inactive) in each case. Moreover, the GI50 with K562, in the experiment on OVCAR-4, in the experiment with HL-60, in the experiment with CCRF-CEM, with SK-MEL-28 and with SF-268 was > 100 µM (inactive) throughout. Further, the GI50 with SW-620, in the experiment on M14, with OVCAR-5, in the experiment on RXF 393, in the experiment with DU-145 and in the experiment with NCI-H460 was > 100 µM (inactive) each time. Further, the GI50 with SK-MEL-2 and in the experiment with OVCAR-3 was > 100 µM (inactive) each time.
On to `CC(OC(C)(C)C)[C@H](NC(=O)OCc1ccccc1)C(=O)NC(OCc1ccccc1)[C@H]1COC(C)(C)O1` (stereo not given in full), for which the GI50 in the experiment on NCI-H226 was > 10 µM (inactive); in the experiment with 786-0, > 10 µM (inactive); in the experiment with TK-10 it was > 10 µM (inactive); in the experiment with EKVX, > 10 µM (inactive); with HOP-62 it was > 10 µM (inactive); in the experiment on A549 it was 39.3 µM (inactive). The GI50 was > 10 µM (inactive) with K562; > 10 µM (inactive) in the experiment with OVCAR-4; > 10 µM (inactive) with HL-60; > 10 µM (inactive) in the experiment on CCRF-CEM; > 100 µM (inactive) with SK-MEL-28; 40.3 µM (inactive) with SF-268. Moreover, the GI50 in the experiment with SW-620 was > 10 µM (inactive); in the experiment with M14, > 10 µM (inactive); with OVCAR-5, > 10 µM (inactive); in the experiment on RXF 393 it was 21.8 µM (inactive); with DU-145 it was > 100 µM (inactive); in the experiment with NCI-H460 it was > 10 µM (inactive). Also, the GI50 with SK-MEL-2 and in the experiment on OVCAR-3 was > 10 µM (inactive) throughout.
Turning to `CSC1(C(=O)O)C2CCC3C2CCC31` (stereo not given), the GI50 with NCI-H226, in the experiment with 786-0, in the experiment on TK-10, in the experiment with EKVX, in the experiment on HOP-62 and in the experiment on A549 was > 100 µM (inactive) throughout. The GI50 in the experiment with K562 is 73.3 µM (inactive); in the experiment on OVCAR-4 it was > 100 µM (inactive); with HL-60 it was 99.5 µM (inactive); in the experiment with CCRF-CEM it was 52.6 µM (inactive); with SK-MEL-28 it was > 100 µM (inactive); with SF-268, > 100 µM (inactive). In addition, the GI50 with SW-620 is > 100 µM (inactive); in the experiment with M14, > 100 µM (inactive); with OVCAR-5, > 100 µM (inactive); in the experiment on RXF 393, > 100 µM (inactive); with DU-145, > 100 µM (inactive); with NCI-H460, 62.1 µM (inactive). In addition, the GI50 in the experiment on SK-MEL-2 and with OVCAR-3 was > 100 µM (inactive) in each case.
Consider `Nc1nc(O)c2[nH]nnc2n1` [8-AZAGUANINE], for which the GI50 in the experiment on NCI-H226 was 0.789 µM (active); in the experiment with 786-0 it was 0.292 µM (active); with TK-10, 0.408 µM (active); with EKVX, 11.4 µM (inactive); in the experiment with HOP-62, 0.326 µM (active); with A549 it was 33 µM (inactive). For the same compound, the GI50 in the experiment with K562 was 0.268 µM (active); in the experiment with OVCAR-4, 12.9 µM (inactive); with HL-60, 0.326 µM (active); with CCRF-CEM, 0.242 µM (active); in the experiment with SK-MEL-28, 0.728 µM (active); with SF-268 it was 0.406 µM (active). The GI50 with SW-620 is 0.306 µM (active); in the experiment on M14, 0.292 µM (active); with OVCAR-5 it was 21.9 µM (inactive); in the experiment with RXF 393, 0.143 µM (active); with DU-145, 0.684 µM (active); with NCI-H460 it was 11.4 µM (inactive). Besides, the GI50 in the experiment on SK-MEL-2 is 0.074 µM (active); with OVCAR-3, 16 µM (inactive).
For `O[C@H]1[C@H]2c3cc4c(cc3CN3CCC(=C[C@@H]1O)[C@H]23)OCO4` [LYCORINE], the GI50 is 2.76 µM (inactive) in the experiment on NCI-H226; 3.1 µM (inactive) with 786-0; 2.67 µM (inactive) with TK-10; 2.39 µM (inactive) in the experiment with EKVX; 1.78 µM (inactive) with HOP-62; 1.39 µM (inactive) in the experiment on A549. Besides, the GI50 in the experiment with K562 is 1.2 µM (inactive); in the experiment with OVCAR-4 it was 1.34 µM (inactive); with HL-60 it was 2.14 µM (inactive); with CCRF-CEM, 1.82 µM (inactive); in the experiment with SK-MEL-28, 2.7 µM (inactive); in the experiment with SF-268 it was 0.802 µM (active). Also, the GI50 with SW-620 was 2.61 µM (inactive); with M14, 1.86 µM (inactive); in the experiment on OVCAR-5, 2.5 µM (inactive); in the experiment on RXF 393, 0.3 µM (active); in the experiment with DU-145, 1.32 µM (inactive); in the experiment with NCI-H460, 1.26 µM (inactive). For the same compound, the GI50 in the experiment with SK-MEL-2 is 0.376 µM (active); in the experiment with OVCAR-3, 2.47 µM (inactive).
